Source: PMC12238850, “Molecular determinants for recognition of serotonylated chromatin” (Nucleic Acids Research, 2025)
Like-named read-outs stand apart in the source and are kept apart here. Blank lines part the entries; values can stand above or below the molecule they belong to.

What was measured:
[1] = biological target: T1, Taf3-PHD (residues 857–924) (Mus musculus, UniProt Q5HZG4); assay: NMR titration line shape analysis (TITAN), wild-type Taf3-PHD; type: binding
T1 construct: PHD finger of Taf3 (residues 857–924) in NMR buffer; GST (N, cleaved yes); made in house; host or cells: E. coli BL21(DE3), M9 minimal medium (13C/15N)
T1 sequence (Q5HZG4 857-924): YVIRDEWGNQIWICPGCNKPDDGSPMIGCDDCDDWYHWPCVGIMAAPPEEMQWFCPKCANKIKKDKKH
Description: The ^13C- and ^15N-labelled Taf3-PHD NMR samples were purified as described above, with minor differences. A single colony of freshly transformed BL21(DE3) E. coli was grown in a synthetic M9 minimal medium (6.0 g/l Na2HPO4·2H2O, 3.0 g/l KH2PO4, 0.5 g/l NaCl, 25 mg/l MgSO4, 290 μg/l CaCl2, 1 μg/l FeSO4·7H2O, 270 μg/l ZnCl2, and 5 mg/l thiamine) containing 2.0 g/l ^13C-glucose as the only carbon source and 0.5 g/l ^15NH4Cl as the sole nitrogen source. Protein expression, lysis, and loading to Glutathione Sepharose™ column were performed as described above. The GST-tag was removed through on-column thrombin digestion by loading excess thrombin (SERVA) in wash buffer followed by overnight digestion at 4°C. The cleaved PHD moiety with a […] N-terminal extension (Gly–Ser–His–Met–Ala–Met–Ala) remaining from the thrombin cleavage site was collected from the flow-through and further purified in a Mono Q™ 10/100 GL as before and subsequently loaded to a Superdex-75 HiLoad 16/600 gel filtration column in NMR buffer (20 mM KPi, pH 7.0, 150 mM KCl, 10 μM ZnCl2) (Supplementary Fig. S1).
All data were recorded at 298 K on a Bruker Avance III HD 900 MHz spectrometer equipped with a cryoprobe, unless noted otherwise. Sample for assignment verification contained 0.3 mM ^13C- and ^15N-labelled PHD finger of Taf3 (residues 857–924) in NMR buffer (20 mM KPi, pH 7.0, 150 mM KCl, 10 μM ZnCl2, 0.01% NaN3, 10% D2O) in a 5-mm NMR tube. Samples for peptide interaction studies contained 0.19 mM ^13C- and ^15N-labelled PHD in NMR buffer in 3-mm NMR tubes. Lyophilized peptides were dissolved in NMR buffer including 1 mM sodium 3-(trimethylsilyl)tetradeuteriopropanionate (TSP) into 20 mM stock solutions. Upon dilution to 1 mM, all peptide solutions were at pH 7.0 in NMR buffer. Peptide concentrations were determined by comparing the integral of the Thr methyl signal (from T3, T6, and T11, total nine protons) to that of TSP using a quantitative 1D experiment (recycle delay 60 s) recorded at a Bruker Avance III 600 MHz spectrometer. Saturated complexes with H3K4me1/H3K4me2/H3K4me3 peptides with and without H3Q5ser were made by adding peptide to a 0.7 mM final concentration (3.6 equiv.). […] Additional samples were prepared using 30%, 50%, 80%, and 160% equiv. of peptide. All spectra were recorded and processed using Bruker Topspin and analysed using NMR-FAM Sparky and Poky.
For the H3K4me2 complexes, the resonance of G879 was excluded due to overlap and that of K875 was included. Spectra were processed using NMRPipe using exponential line broadening of 10/15 Hz in the direct/indirect dimension of the free induction decay before Fourier transform. Data were fit against a 1:1 binding model that also optimizes the ligand concentration to compensate for concentration errors. Fitting assumed an HSQC experiment using 1.2 ms for the first zz-filter delays and an additional 0.6 ms evolution at the start and end of t1 that accommodated the echo/anti-echo gradient. The average koff value and standard error from a bootstrap analysis based on 100 replicas are reported. The 95% confidence limits were estimated using a grid search fixing koff allowing for an ∼3% increase in the final residuals as based on the F-statistic given the degrees of freedom. For each koff value, the KD for the H3K4me3 peptide was restrained to fall within 100 and 400 nM to enforce compatibility to previous reported affinity to avoid unrealistically high fitted KD values at higher koff values. Of note, the quality of the fit at the confidence limit edges is visibly worse than the best fit, particularly for the high koff side. For the H3K4me3Q5ser peptide, no restraint on KD was necessary. For the H3K4me2 peptides, the KD was restrained to 5 μM maximum. Without these upper bounds for KD, slightly wider confidence limits for koff are found.

TFIID = assay: Histone peptide pull-down qMS, HeLa nuclear extract; type: binding, HeLa cells; conditions: biotinylated H3 (1–13) peptides, overnight at 4°C, 300 mM NaCl, pH 7.9, qMS, FDR 0.1
Description: (§1) Nuclear extracts of HeLa cells were prepared using a modified version of the Dignam procedure. Cytosolic and nuclear separation was validated by immunoblot using the following antibodies: for TBP the 20C7 in house mouse monoclonal and for Tubulin the DM1A monoclonal from Calbiochem (CP06) (Supplementary Fig. S5A). Biotinylated H3 (1–13) peptides immobilized on Dynabeads™ M-280 Streptavidin (Invitrogen) were incubated on a rotating wheel with 1 mg of HeLa nuclear extract overnight at 4°C in binding buffer [20 mM HEPES–KOH, pH 7.9, 300 mM NaCl, 20% glycerol, 2 mM MgCl2, 0.2 mM ethylenediaminetetraacetic acid, 0.1% NP-40, 0.5 mM DTT, and 1× cOmplete™ Protease Inhibitor Cocktail (Roche)]. The beads were then washed two times with binding buffer containing 0.5% NP-40, two times with phosphate buffered saline (PBS) containing 0.5% NP-40, and two times with plain PBS. On-bead digestion of bound proteins was performed overnight at 22°C with 0.1 μg/ml of trypsin in elution buffer (100 mM Tris–HCl, pH 7.5, 2 M urea, 10 mM DTT). […] A third of the final elution was analysed as described in [44, 45] with minor changes. For nanoflow-HPLC–MS/MS samples were analysed on an Orbitrap Fusion Lumos mass spectrometer coupled to an Easy nano-LC 1200 HPLC (Thermo Fisher Scientific). […]

TAF3-PHD = conditions: read-out: expected dissociation constant (KD); cited from earlier work
Description: An important link between H3K4me3 and pol II is formed by the basal transcription factor TFIID [[32], [35–37]]. TFIID is able to engage with active promoters by DNA contacts as well as by two histone-binding domains: the double bromodomains of TAF1 engaging acylated histones and the TAF3-PHD finger binding H3K4me3 [[32], [35–37]]. […] Binding of ... || All data were recorded at 298 K on a Bruker Avance III HD 900 MHz spectrometer equipped with a cryoprobe, unless noted otherwise. Sample for assignment verification contained 0.3 mM ^13C- and ^15N-labelled PHD finger of Taf3 (residues 857–924) in NMR buffer (20 mM KPi, pH 7.0, 150 mM KCl, 10 μM ZnCl2, 0.01% NaN3, 10% D2O) in a 5-mm NMR tube. Samples for peptide interaction studies contained 0.19 mM ^13C- and ^15N-labelled PHD in NMR buffer in 3-mm NMR tubes. Lyophilized peptides were dissolved in NMR buffer including 1 mM sodium 3-(trimethylsilyl)tetradeuteriopropanionate (TSP) into 20 mM stoc ... || Overall, we propose that serotonin recognition is governed by edge–face CH–π interactions with either aromatic residues or prolines. Consistent with our proposal, CHD1 contains aromatic residues at positions Y295 and Y406, either of which could orient to engage with H3Q5ser explaining the preference of CHD1 for serotonin (Supplementary Fig. S15C). […]

[2] = biological target: 13C- and 15N-labelled Taf3-PHD finger (residues 857-924), GST removed by thrombin (Mus musculus) (UniProt Q5HZG4); assay: NMR titration; 0.19 mM 13C,15N-labelled Taf3-PHD, peptide added (30% to 3.6 equiv.); 298 K; 20 mM KPi pH 7.0, 150 mM KCl, 10 μM ZnCl2; koff from TITAN line-shape fits (0%, 50%, 150% peptide), 1:1 model
[3] = biological target: Taf3-PHD P881E–W894F used for NMR titrations (Mus musculus) (UniProt Q5HZG4); assay: as above
BPTF = assay: Histone peptide pull-down qMS, HeLa nuclear extract; type: binding, HeLa cells; conditions: biotinylated H3 (1–13) peptides, FDR 0.1
Description: as §1

[4] = biological target: T2, Taf3-PHD (Mus musculus Taf3 residues 857-924), 13C- and 15N-labelled, GST removed (Mus musculus, UniProt Q5HZG4 857-924, 13C- and 15N-labelled); assay: solution NMR structure; 0.88 mM 13C,15N Taf3-PHD with 0.88 mM H3K4me3Q5ser peptide; 20 mM KPi pH 7.0, 4 mM KCl, 10 uM ZnCl2; NOESY at 293 K; NOE distance restraints imposed with HADDOCK on the structure PDB 2K17; conditions: both partners purified
T2 construct: Taf3 PHD finger, Mus musculus, residues 857-924; numbering of mouse Taf3 isoform 1, UniProt Q5HZG4; also called Taf3-PHD finger; PHD domain; source: E. coli BL21(DE3) in M9 minimal medium, purified (Glutathione Sepharose, on-column thrombin, Mono Q, Superdex-75); not shown: GST, N-terminal, cleaved
T2 sequence: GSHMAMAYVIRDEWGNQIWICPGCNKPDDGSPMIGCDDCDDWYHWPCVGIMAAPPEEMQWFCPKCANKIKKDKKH

koff ([1]; NMR line shape fit (TITAN), 298 K, 20 mM KPi, pH 7.0, 150 mM KCl, 1:1 model, average ± standard error from bootstrap, 100 replicas, read-out: koff): 207 ± 10 s⁻¹
koff ([1]; NMR line shape fit (TITAN), 298 K, pH 7.0, grid search, read-out: koff 95% confidence limits): 160 to 250 s⁻¹
Molecule: C[C@H](N)C(=O)N[C@@H](CCCNC(=N)N)C(=O)N[C@H](C(=O)N[C@@H](CCCCN(C)C)C(=O)N[C@@H](CCC(N)=O)C(=O)N[C@H](C(=O)N[C@@H](C)C(=O)N[C@@H](CCCNC(=N)N)C(=O)N[C@@H](CCCCN)C(=O)N[C@@H](CO)C(=O)N[C@H](C(=O)NCC(N)=O)[C@@H](C)O)[C@@H](C)O)[C@@H](C)O [H3K4me2]
Kd (TAF3-PHD): 1700 nM

koff [2]: 207 s⁻¹
Molecule: H3K4me2 histone H3 tail peptide (non-biotinylated)

koff [2]: 71 s⁻¹
Molecule: H3K4me2Q5ser histone H3 tail peptide (non-biotinylated)

koff [2]: 48.8 s⁻¹
koff [3]: 29.6 s⁻¹
Molecule: H3K4me3 histone H3 tail peptide (non-biotinylated)

koff [2]: 16.8 s⁻¹
koff [3]: 24.2 s⁻¹
Molecule: H3K4me3Q5ser histone H3 tail peptide (non-biotinylated)

The remaining lines, values behind:

Molecule: C[C@H](N)C(=O)N[C@@H](CCCNC(=N)N)C(=O)N[C@H](C(=O)N[C@@H](CCCCN(C)C)C(=O)N[C@@H](CCC(=O)NCCc1c[nH]c2ccc(O)cc12)C(=O)N[C@H](C(=O)N[C@@H](C)C(=O)N[C@@H](CCCNC(=N)N)C(=O)N[C@@H](CCCCN)C(=O)N[C@@H](CO)C(=O)N[C@H](C(=O)NCC(N)=O)[C@@H](C)O)[C@@H](C)O)[C@@H](C)O [H3K4me2Q5ser]
koff ([1]; pH 7): 71 ± 2 s⁻¹
koff ([1]; pH 7, read-out: koff 95% confidence limits): 56 to 90 s⁻¹
TFIID preference for H3Q5ser peptides (TFIID): TFIID enrichment was most pronounced

Molecule: H-ARTK(Me)QTARKSTG-NH2 [H3K4me1, H3 tail peptide monomethylated at lysine 4]
Kd (TAF3-PHD): > 200000 nM

Molecule: H-ARTKQ(ser)TARKSTG-NH2 [H3Q5ser, H3 tail peptide, K4 unmethylated, serotonylated glutamine 5]
BPTF preference for H3Q5ser peptides (BPTF): enhanced binding to H3Q5ser compared to the unmodified H3 peptide

B1: H3K4me3Q5ser peptide, non-biotinylated: H-ARTK(Me3)Q(ser)TARKSTG-NH2 (peptide)
peptide: H-ARTK(Me3)Q(serotonyl)TARKSTG-NH2
notes: histone H3 N-terminal tail, residues 1-12 of H3K4me3Q5ser; also called H3K4me3Q5ser ligand; H3 peptide; source: synthetic peptide
binding result [4]: binds
